Experiment [1] addresses T1, Matrilysin (Homo sapiens) (UniProt P09237).
T1 sequence (whole entry): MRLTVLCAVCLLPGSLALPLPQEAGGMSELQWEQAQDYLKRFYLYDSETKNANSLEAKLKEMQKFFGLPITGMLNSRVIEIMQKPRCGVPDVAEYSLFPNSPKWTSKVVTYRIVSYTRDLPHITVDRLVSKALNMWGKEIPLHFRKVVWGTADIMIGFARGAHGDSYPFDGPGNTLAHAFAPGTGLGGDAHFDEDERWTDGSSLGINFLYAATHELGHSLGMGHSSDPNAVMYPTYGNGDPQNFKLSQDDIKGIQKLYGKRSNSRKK
The experiment can be described thus: Inhibition of human recombinant MMP7 at 10 uM.

Experiment [2] concerns the target T2, Matrix metalloproteinase-9 (Homo sapiens, UniProt P14780). The experiment can be described thus: Inhibition of human recombinant MMP9.
The target in experiment [3] is T3, Stromelysin-2 (Homo sapiens, UniProt P09238). The experiment is described as follows: Inhibition of human recombinant MMP10 at 10 uM.
Target sequence in this assay (P09238 99-476 limits assumed): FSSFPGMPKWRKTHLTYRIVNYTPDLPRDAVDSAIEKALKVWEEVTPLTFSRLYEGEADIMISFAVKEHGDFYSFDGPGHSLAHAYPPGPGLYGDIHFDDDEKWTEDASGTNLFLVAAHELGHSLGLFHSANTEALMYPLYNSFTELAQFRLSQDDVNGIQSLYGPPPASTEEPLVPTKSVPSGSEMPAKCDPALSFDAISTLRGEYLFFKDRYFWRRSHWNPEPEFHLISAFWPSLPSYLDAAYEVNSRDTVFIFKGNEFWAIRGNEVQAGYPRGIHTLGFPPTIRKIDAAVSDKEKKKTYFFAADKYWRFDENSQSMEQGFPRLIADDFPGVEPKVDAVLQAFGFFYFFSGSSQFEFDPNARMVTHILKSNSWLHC
A further experiment deals with T4, Matrilysin (Homo sapiens, UniProt P09237).
T4 sequence (P09237 whole entry): T1 sequence (whole entry)
The experiment is described as follows: (§1) Inhibition of human recombinant MMP7.

Experiment [4] deals with T3, Stromelysin-2. The experiment is described as follows: Inhibition of human recombinant MMP10.
For experiment [5], the target named is T2, Matrix metalloproteinase-9. The experiment can be described thus: Inhibition of human recombinant MMP9 at 10 uM.
Experiment [6] deals with T1, Matrilysin (Homo sapiens). The description is as §1.

Drawing on ChEMBL document CHEMBL1150313, “Novel bis-(arylsulfonamide) hydroxamate-based selective MMP inhibitors” (Bioorg Med Chem Lett, 2008), this text covers inhibition, Activity and Ki for 25 compounds.

Each structure is given as a SMILES string. The source made the active and inactive calls. The rule behind the calls is not given here.

T2 sequence (P14780 whole entry): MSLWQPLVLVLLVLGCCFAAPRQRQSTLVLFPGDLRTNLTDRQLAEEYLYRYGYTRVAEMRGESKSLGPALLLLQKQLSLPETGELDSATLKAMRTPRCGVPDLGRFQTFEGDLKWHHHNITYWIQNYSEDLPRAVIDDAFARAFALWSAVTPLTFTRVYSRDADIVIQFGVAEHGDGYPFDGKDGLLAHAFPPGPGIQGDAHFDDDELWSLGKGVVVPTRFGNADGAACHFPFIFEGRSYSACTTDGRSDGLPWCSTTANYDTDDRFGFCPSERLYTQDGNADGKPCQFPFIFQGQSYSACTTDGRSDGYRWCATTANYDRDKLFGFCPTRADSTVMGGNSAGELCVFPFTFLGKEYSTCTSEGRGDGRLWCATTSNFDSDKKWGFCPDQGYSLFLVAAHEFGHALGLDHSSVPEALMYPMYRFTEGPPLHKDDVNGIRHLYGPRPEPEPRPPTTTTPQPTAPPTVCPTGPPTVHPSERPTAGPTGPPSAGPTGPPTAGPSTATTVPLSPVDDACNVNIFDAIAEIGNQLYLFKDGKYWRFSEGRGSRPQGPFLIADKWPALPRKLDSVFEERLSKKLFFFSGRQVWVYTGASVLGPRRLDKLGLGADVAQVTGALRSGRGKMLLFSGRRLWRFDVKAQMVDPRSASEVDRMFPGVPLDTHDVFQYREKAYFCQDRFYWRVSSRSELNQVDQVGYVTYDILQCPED

Turning to `O=C(NO)[C@H](CCCCNS(=O)(=O)c1ccc(I)cc1)NS(=O)(=O)c1ccc(I)cc1`, the inhibition in experiment [1] worked out at 46%; at Stromelysin-2 [3], 30.9%. Also, in experiment [2], the result was inactive.

As for `CN(C)c1cccc2c(S(=O)(=O)NCC(NS(=O)(=O)c3cccc4c(N(C)C)cccc34)C(=O)NO)cccc12` (configuration not stated), the Ki in experiment [2] is 150 µM; at Matrilysin, 4.8 µM.

Consider `O=C(NO)[C@H](CCCCNS(=O)(=O)c1ccc(C(F)(F)F)cc1)NS(=O)(=O)c1ccc(C(F)(F)F)cc1`, for which the figures for the inhibition (in experiment [1]; on Stromelysin-2 [3]) were 24% and 1.8%, respectively. For the same compound, the outcome in experiment [2] was inactive.

As for `COc1ccc(S(=O)(=O)NCC(NS(=O)(=O)c2ccc(OC)cc2)C(=O)NO)cc1` (configuration not stated), the Ki at Stromelysin-2 [4] was 0.335 µM; in experiment [2] it was 0.039 µM; on Matrilysin, 0.605 µM.

On to `O=C(NO)C(CNS(=O)(=O)c1ccccc1C(F)(F)F)NS(=O)(=O)c1ccccc1C(F)(F)F` (configuration not stated), for which the result (at Stromelysin-2 [4]; in experiment [2]) was inactive. The Ki at Matrilysin stood at 6 µM.

With `O=C(NO)C(CNS(=O)(=O)c1ccc(F)cc1)NS(=O)(=O)c1ccc(F)cc1` (configuration not stated), the Ki on Stromelysin-2 [4] was found to be 4.57 µM; in experiment [2], 2.75 µM; at Matrilysin, 0.625 µM.

On to `O=C(NO)[C@H](CCCNS(=O)(=O)c1ccc(Cl)cc1)NS(=O)(=O)c1ccc(Cl)cc1`, for which the results for the inhibition (in experiment [1]; at Stromelysin-2 [3]) were 31% and 34.5%, respectively. Moreover, in experiment [2], the outcome was inactive.

In the case of `O=C(NO)[C@H](CCCNS(=O)(=O)c1ccc(Br)cc1)NS(=O)(=O)c1ccc(Br)cc1`, the values for the inhibition (in experiment [1]; in experiment [5]; at Stromelysin-2 [3]) were 32%, 9.3% and 16.4%, respectively.

As for `O=C(NO)C(CNS(=O)(=O)c1ccc(I)cc1)NS(=O)(=O)c1ccc(I)cc1` (configuration not stated), the Ki on Stromelysin-2 [4] worked out at 1.6 µM; in experiment [2], 0.0026 µM; on Matrilysin it was 1.8 µM.

As for `O=C(NO)C(CNS(=O)(=O)c1ccc(Cl)cc1)NS(=O)(=O)c1ccc(Cl)cc1` (configuration not stated), the results for the Ki (in experiment [2]; at Matrilysin) were 0.23 µM and 0.237 µM, respectively.

`O=C(NO)[C@H](CCCNS(=O)(=O)c1ccccc1)NS(=O)(=O)c1ccccc1`: the outcome (on Stromelysin-2 [4]; in experiment [2]) was inactive. Moreover, the Ki on Matrilysin stood at 3 µM.

For the compound `O=C(NO)C(CNS(=O)(=O)c1ccc(C(F)(F)F)cc1)NS(=O)(=O)c1ccc(C(F)(F)F)cc1` (configuration not stated), the Ki at Stromelysin-2 [4] worked out at 23 µM; in experiment [2], 7.9 µM; on Matrilysin, 10 µM.

Take `O=C(NO)[C@H](CCCNS(=O)(=O)c1ccc(I)cc1)NS(=O)(=O)c1ccc(I)cc1`: at Stromelysin-2 [4], the outcome was inactive. Moreover, the Ki in experiment [2] was 221 µM; on Matrilysin, 5 µM.

For the compound `COc1ccc(S(=O)(=O)NCC(NS(=O)(=O)c2ccc(OC)cc2OC)C(=O)NO)c(OC)c1` (configuration not stated), the results for the Ki (on Stromelysin-2 [4]; in experiment [2]; on Matrilysin) were 372 µM, 124 µM and 0.289 µM, respectively.

In the case of `O=C(NO)C(CNS(=O)(=O)c1c(F)c(F)c(F)c(F)c1F)NS(=O)(=O)c1c(F)c(F)c(F)c(F)c1F` (configuration not stated), the outcome at Stromelysin-2 [4] was inactive. The Ki in experiment [2] turned out to be 212 µM; on Matrilysin, 8.6 µM.

Take `COc1ccc(S(=O)(=O)NCCC[C@H](NS(=O)(=O)c2ccc(OC)cc2)C(=O)NO)cc1`: on Stromelysin-2 [4], the Activity turned out to be 16 µM. Moreover, in experiment [2], the Ki was 4.2 µM. Also, in experiment [6], the result was inactive.

With `O=C(NO)C(CNS(=O)(=O)c1cccc(C(F)(F)F)c1)NS(=O)(=O)c1cccc(C(F)(F)F)c1` (configuration not stated), the outcome (on Stromelysin-2 [4]; in experiment [2]) was inactive. For the same compound, the inhibitory constant (Ki) at Matrilysin amounted to 0.602 µM.

For the compound `O=C(NO)C(CNS(=O)(=O)c1ccc(Br)cc1)NS(=O)(=O)c1ccc(Br)cc1` (configuration not stated), the Ki amounted to 0.15 µM in experiment [2] and 5.5 µM on Matrilysin.

Take `O=C(NO)[C@H](CCCNS(=O)(=O)c1ccc(C(F)(F)F)cc1)NS(=O)(=O)c1ccc(C(F)(F)F)cc1`: the inhibitory constant (Ki) on Stromelysin-2 [4] was found to be 337 µM; in experiment [2], 329 µM; at Matrilysin it was 7 µM.

As for `O=C(NO)[C@H](CCCCNS(=O)(=O)c1ccc(Br)cc1)NS(=O)(=O)c1ccc(Br)cc1`, the outcome in experiment [2] was inactive. Also, the Ki at Matrilysin stood at 2.2 µM. Further, the inhibition on Stromelysin-2 [3] was 34.5%.

On to `O=C(NO)C(CNS(=O)(=O)c1ccc([N+](=O)[O-])cc1)NS(=O)(=O)c1ccc([N+](=O)[O-])cc1` (configuration not stated), for which the figures for the inhibition constant Ki (on Stromelysin-2 [4]; in experiment [2]; on Matrilysin) were 22 µM, 1.7 µM and 6.6 µM, respectively.

On to `O=C(NO)[C@H](CCCCNS(=O)(=O)c1ccccc1)NS(=O)(=O)c1ccccc1`, for which the inhibition was 44% in experiment [1], 7.5% in experiment [5] and 34.5% on Stromelysin-2 [3].

On to `O=C(NO)[C@H](CCCCNS(=O)(=O)c1ccc(F)cc1)NS(=O)(=O)c1ccc(F)cc1`, for which, in experiment [2], the outcome was inactive. The Ki on Matrilysin is 3.1 µM. Besides, on Stromelysin-2 [3], the inhibition amounted to 27.4%.

In the case of `O=C(NO)C(CNS(=O)(=O)c1ccccc1)NS(=O)(=O)c1ccccc1` (configuration not stated), the Ki at Stromelysin-2 [4] was 0.356 µM; in experiment [2], 0.227 µM; at Matrilysin, 2.8 µM.

As to `O=C(NO)[C@H](CCCNS(=O)(=O)c1ccc(F)cc1)NS(=O)(=O)c1ccc(F)cc1`, the inhibition in experiment [1] came out at 17%; on Stromelysin-2 [3] it was 20%. The outcome in experiment [2] was inactive.
